Measured values taken from patent US20210024499A1, “OXIDIZED BIS(3-INDOLYL)METHANES AND USES THEREOF” (Sanford Burnam Prebys Medical Discovery Institute, priority 2018, published 2021).

Tests used:
Type in all cases: cell-based
[1] = test system: Nur77 interaction with Bcl-2; test: Confocal microscopy colocalization of Nur77 with Bcl-2
[2] = test system: Bcl-2−/−HeLa cells; test: PARP cleavage and caspase 3 activation, Bcl-2 knockout HeLa
Description: (§1) Knocking out Nur77 and Bcl-2 from HeLa cells employed the CRISPR/Cas9 system. gRNA targeting sequence of Nur77 (5′-[…]-3′) and Bcl-2 (5′-[…]-3′) was cloned into gRNA cloning vector Px330 (Addgene, 71707) and confirmed by sequencing. To screen for cells lacking Nur77 or Bcl-2, HeLa cells were transfected with control vector and gRNA expression vectors, followed by G418 selection (0.5mg/m1). Single colonies were subjected to Western blotting using anti-Nur77 and anti-Bcl-2 antibody to select knockout cells.
The apoptotic effect of Compound lwas also evaluated in Bcl-2 genome knockout HeLa cells generated by CRISPR/Cas9 technology (Example A-5).

[3] = test system: SW480 cells; test: PARP cleavage assay (Western blotting), SW480; conditions: 6 hours
From the text: (§2) Compound 1a had no effect under the same conditions (FIG. 1A). […] Compound 1a, 28a, 47a, 48a, 73a, 39a, 70a, 103a, 89a and 88a had no effect under the same conditions (FIG. 3B-C).

[4] = test system: Nur77−/− HeLa cells; test: Mitochondrial membrane potential (JC1), Nur77 knockout HeLa; conditions: 1 μM, 6 h
Description: (§3) Loss of mitochondrial membrane potential (Avm) represents one of the hallmarks of apoptosis. A JC-1 probe was employed to measure mitochondrial depolarization in cancer cells. MDA-MB-231 breast cancer cells were treated with different concentration of test compounds for 6 hours. JC-1 staining solution (5 μg/ml) was added at 37° C. for 20 min. After washing with PBS twice, mitochondrial membrane potentials were monitored by determining the relative amounts of dual emission from a multiple fluorescence reader. The fluorescence in cells was quantitatively analyzed by flow cytometry. Mitochondrial depolarization is depicted by an increase in the green/red fluorescence intensity ratio. ROS were monitored with the oxiadtion-senstive fluorescent probe 2′7′-dichlorodihydroflurescenin diacetate (DCF-DA).
Furthermore, Nur77^−/−HeLa cells were more resistant than the parental HeLa cells to Compound 1 in its induction of the mitochondrial membrane potential loss measured by JC1 staining and in the release of mitochondrial ROS (as performed in Example A-12).

[5] = target: T1, Nur77 (Homo sapiens, UniProt P22736); test: Nur77 expression and mitochondrial targeting with BI2030, HeLa; conditions: HeLa cells
T1 construct: expressed in transfected cells
T1 sequence (P22736 whole entry): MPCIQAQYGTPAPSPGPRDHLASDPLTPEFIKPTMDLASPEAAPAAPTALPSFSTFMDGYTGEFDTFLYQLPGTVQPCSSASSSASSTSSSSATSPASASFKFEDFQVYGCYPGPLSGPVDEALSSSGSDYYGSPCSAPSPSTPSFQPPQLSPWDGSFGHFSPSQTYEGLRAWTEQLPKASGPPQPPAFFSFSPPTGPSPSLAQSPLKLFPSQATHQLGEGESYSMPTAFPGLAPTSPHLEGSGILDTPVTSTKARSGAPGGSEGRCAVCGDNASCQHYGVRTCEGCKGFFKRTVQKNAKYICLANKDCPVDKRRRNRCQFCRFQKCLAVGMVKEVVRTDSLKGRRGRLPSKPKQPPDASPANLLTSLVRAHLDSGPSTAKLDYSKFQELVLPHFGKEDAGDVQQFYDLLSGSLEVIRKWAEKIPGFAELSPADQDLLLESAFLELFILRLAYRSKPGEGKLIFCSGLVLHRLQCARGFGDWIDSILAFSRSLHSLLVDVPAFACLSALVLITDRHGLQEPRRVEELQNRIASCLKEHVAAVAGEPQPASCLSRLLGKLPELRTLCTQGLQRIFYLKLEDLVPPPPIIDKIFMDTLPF
From the text: To further characterize the effect of Compound 1 on promoting Nur77 mitochondrial targeting, we investigated the effect of Compound 1 in combination with BI2030 on Nur77 mitochondrial targeting and apoptosis induction. […] When Compound 1 and B12030 were used together, most of the BI2030-induced Nur77 protein was found in the heavy membrane fraction, and formed punctate structure in the cytoplasm, as visualized by confocal microscopy.

[6] = test system: breast cancer cell lines (MDA-MB-231, BT549, HCC 1937, ZR-75-1, T47D, MCF-7); test: Cell viability (MTT) in various breast cancer cell lines; conditions: 24 hours, FIG. 1E; regardless of hormone dependency
Description: Cell viability was analyzed by using a colorimetric 3-(4,5-dimethylthiazol-[…]2-yl)-2,5-diphenyletetrazolium Bromide (MTT) assay that determines mitochondrial dehydrogenase activities in the living cells with a colorimetric method. Cells treated with test compounds were incubated with MTT and their effect on the viability of the cells was assayed by the ability of treated cells to reduce the yellow tetrazolium dye MTT to its insoluble formazan, which has a purple color.
Compound 1 was effective in various breast cancer cell lines analyzed regardless of its hormone dependency, including MDA-MB-231 cells, BT549 cells, HCC 1937 cells, ZR-75-1 cells, T47D cells, and MCF-7 cells (FIG. 1E).

[7] = test system: MDA-MB-231 cells; test: Mitochondrial ROS, MDA-MB-231; conditions: dose dependent, 6 hours
Description: as §3

[8] = target: GFP-Nur77 (Homo sapiens, UniProt P22736); test: GFP-Nur77 localization in transfected HEK293T cells; conditions: HEK293T cells transfected with GFP-Nur77, 0.5 μM
Chain of GFP-Nur77 (P22736 whole entry): as above
Description: Cells were fixed in 3.7% paraformaldehyde. For mitochondrial staining, cells were incubated with anti-Hsp60 goat immunoglobulin G (IgG) (Santa Cruz Biotechnology, Santa Cruz, Calif.), followed by anti-goat IgG conjugated with Cy3. The nuclei were visualized by DAPI staining. Fluorescent images were collected and analyzed by using a fluorescence microscopy or MRC-1024 MP laser-scanning confocal microscope (Bio-Rad, Hercules, Calif.).
To confirm the effect of Compound 1 on Nur77 cytoplasmic localization, HEK293T cells were transfected with GFP-Nur77 and subsequently treated with 0.5 μM Compound 1.

[9] = test system: MDA-MB-231 cells; test: PARP cleavage assay (Western blotting), MDA-MB-231; conditions: 0.5 μM, 6 hours
From the text: as §2

[10] = test system: HeLa cells; test: DAPI staining for apoptosis, HeLa
Description: In HeLa cells, about 60% apoptotic cells were detected when cells were treated with Compound 1 compared to less than 5% when cells were not treated with Compound 1. Apoptotic cells were counted in 200 cells.
We next examined whether Nur77 mitochondrial targeting induced by the combination of Compound 1/B12030 was apoptotic. HeLa cells were treated with either Compound 1 or BI2030 alone or in combination and apoptosis was examined by DAPI staining. About 7.2% or 9.1% of cells were apoptotic when treated with 0.5 μM Compound 1 or 1 μM BI2030, respectively, for 2 hours. […] Apoptotic cells were counted in 200 cells.

[11] = test system: Nur77−/−HeLa cells; test: Annexin V/PI staining, Nur77 knockout HeLa
Description: as §1
The apoptotic effect of Compound lwas also evaluated in Nur77 genome knockout HeLa cells generated by CRISPR/Cas9 technology (Example A-5).

[12] = test system: Nur77 and pBind-RXRa-LBD-E453,6A; test: Mammalian one hybrid assay, RXRa-LBD/E453,6A mutant with Nur77; conditions: cells transfected with Nur77 and pBind-RXRa-LBD-E453,6A
Description: HEK293T cells were co-transfected with pG5 Luciferase reporter together with the plasmid encoding RXRa-LBD fused with the Gal4 DNA-binding domain and other expression plasmids. After transfection, cells were treated with DMSO or a test compound, and assayed by using the Dual-Luciferase Reporter Assay System (Promega). Transfection efficiency was normalized to Renilla luciferase activity.
To exclude the possibility that Compound 1 acted on RXRa, Glu453 and Glu456 in the RXRa activation function 2 (AF2) region were substituted with Ala and the resulting mutant, RXRa-LBD/E453,6A, was used.

FC(F)(F)c1ccc([C+](c2c[nH]c3ccccc23)c2c[nH]c3ccccc23)cc1 [Compound 1, Bis(1H-indol-3-yl)(4-(trifluoromethyl)phenyl)methylium methanesulfonate]
colocalization of transfected GFP-Nur77 (and GFP-Nur77-LBD) with Bcl-2 [1]: promoted extensive colocalization | induction of PARP cleavage and caspase 3 activation [2]: strongly suppressed | concentration inducing PARP cleavage (dose dependent study) [3]: submicromolar concentrations | JC1 green to red ratio [4]: no significant change | induction of Nur77 expression ([5]; Compound 1 0.5 μM, BI2030 1 μM, 2 hours (FIG. 5)): incapable of inducing Nur77 expression | Nur77 mitochondrial accumulation / targeting ([5]; heavy membrane fraction, Compound 1 tested together with BI2030): able to induce mitochondrial targeting of BI2030-induced Nur77 protein | cell viability (MTT) [6]: effective | intracellular mitochondrial reactive oxygen species (mito-ROS) [7]: marked increase | GFP-Nur77 subcellular localization [8]: diffusely distributed in both the cytoplasm and nucleus | PARP cleavage [9]: effectively induced PARP cleavage | apoptotic cells (DAPI staining), single agent ([10]; 0.5 μM Compound 1 or 1 μM BI2030, 2 hours): About 7.2% | apoptotic cells (DAPI staining) ([10]; 0.5 μM, 6 hours, counted in 200 cells): about 60% | apoptotic cells (DAPI staining), co-treated with Compound 1 and BI2030 ([10]; co-treatment with BI2030, 2 hours): about 35.5% | apoptotic effect (Annexin V/PI staining) [11]: 3.25% | reporter transcriptional activity [12]: could still activate the reporter gene transcription
